Laboratory results reported in PubChem BioAssay AID1949 (Southern Research Institute, 2009).
Converted amounts (≈) assume the structure as drawn. Inconclusive results are not listed. The source made the active and inactive calls. How the calls were made is not given here.

The molecules below were run on M. tuberculosis H37Rv growth inhibition (assay: Mycobacterium tuberculosis H37Rv growth inhibition, cell based, confirmatory dose response (AID 1949);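 further: bacteria grown 7 days with compound before Alamar blue readout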).

SMILES | IC50
O=C(OCc1nnc(-c2ccccc2)o1)c1cc(-c2cccs2)nc2ccccc12 | 3.03 µg/mL (≈ 7.33 µM)
CCc1nccn1S(=O)(=O)c1ccccc1[N+](=O)[O-] | > 50 µg/mL (inactive)
O=C(CSc1n[nH]c(-c2ccc(Cl)cc2)n1)Nc1ccccc1Cl | 4.21 µg/mL (≈ 11.1 µM)
C=CCc1cc(Cl)ccc1OCCCCn1ccnc1 | 2.09 µg/mL (≈ 7.19 µM)
CN1CCN(c2ccc(NC(=O)c3cccc(I)c3)cc2)CC1 | > 50 µg/mL (inactive)
Clc1ccc(OCCCn2ccnc2)cc1Cl | 3.98 µg/mL (≈ 14.7 µM)
COC(=O)c1c(C)oc2ccc(OC(=O)c3cccc([N+](=O)[O-])c3)cc12 | 3.65 µg/mL (≈ 10.3 µM)
COc1cc(C(=O)Oc2ccc3c(c2)CCCC3)cc(OC)c1OC | > 50 µg/mL (inactive)
Cc1ccc2oc(=O)n(CCCOc3ccc(Cl)cc3)c2c1 | 2.98 µg/mL (≈ 9.38 µM)
O=C1c2cccc3cccc(c23)C(=O)N1CCN1CCN(CCc2ccccc2)CC1 | 23.8 µg/mL (≈ 57.5 µM)
Cc1ccc(C(=O)NC(=S)Nc2cccc(NC(=O)c3cccs3)c2)c(C)c1 | 6.96 µg/mL (≈ 17 µM)
CCC(=O)Oc1ccc(-c2nc3ccccc3c(=O)o2)cc1 | > 50 µg/mL (inactive)
O=C(Nc1ccc(-c2cc3ccccc3oc2=O)cc1)c1cc(-n2cnnc2)ccc1Cl | 6.92 µg/mL (≈ 15.6 µM)
CCOc1ccc(N2C(=O)CC(Nc3ccccc3O)C2=O)cc1 (stereo not given) | 4.58 µg/mL (≈ 14 µM)
Oc1cccc2ccc(/C=C/c3cccc(F)c3)nc12 | 0.13 µg/mL (≈ 0.49 µM)
CCCn1c(CNc2ccccc2O)nc2ccccc21 | 0.34 µg/mL (≈ 1.21 µM)
CCOc1ccc(OCC(=O)Nc2cccc(F)c2)cc1 | < 0.1 µg/mL
CCC(C)Oc1ccc(C(=O)NC(=S)Nc2ccc(NC(=O)c3ccco3)cc2)cc1 (stereo not given) | 0.36 µg/mL (≈ 0.823 µM)
Cc1ccc(-c2csc(-c3ccncc3)n2)cc1C | 1.85 µg/mL (≈ 6.95 µM)
O=C(Oc1cccc2cccnc12)c1ccc(Cl)c(S(=O)(=O)N2CCOCC2)c1 | 1.48 µg/mL (≈ 3.42 µM)
CCC(C)c1ccccc1OCC(=O)Nc1cccc(-c2nnc(-c3ccco3)o2)c1 (stereo not given) | 8.07 µg/mL (≈ 19.3 µM)
COc1ccc(OCC(=O)NNC(=S)NC(=O)C(C)(C)C)cc1 | 0.13 µg/mL (≈ 0.383 µM)
N#Cc1cc2c(ccc3ccccc32)oc1=O | 2.12 µg/mL (≈ 9.58 µM)

SMILES | IC50
CC(=O)NC(=S)NNC(=O)c1ccc(-c2ccccc2)cc1 | < 0.1 µg/mL
COC(=O)C1=C(C)NC2=C(C(=O)CC(c3ccc(F)cc3)C2)C1c1ccccc1Cl (stereo not given) | 3.64 µg/mL (≈ 8.55 µM)
C=C(C)Cn1c(=S)[nH]c2sc3c(c2c1=O)CCc1ccccc1-3 | > 50 µg/mL (inactive)
O=[N+]([O-])c1ccc(Sc2n[nH]c(-c3ccccc3)n2)nc1 | 10 µg/mL (≈ 33.5 µM)
Cc1ccccc1NC(=O)c1c(NC(=O)CN2CCN(C)CC2)sc2c1CCC(C(C)(C)C)C2 (stereo not given) | 40.2 µg/mL (≈ 83.3 µM)
Cc1cc2ncn(CCCCOc3ccccc3)c2cc1C | 4.6 µg/mL (≈ 15.6 µM)
CN(C)c1ccc(Nc2nc(-c3ccccn3)cs2)cc1 | 0.74 µg/mL (≈ 2.5 µM)
Cc1cc(C)cc(C(=O)Nc2ccc(N3CCN(C(=O)c4cccs4)CC3)c(Cl)c2)c1 | 15.5 µg/mL (≈ 34.2 µM)
Cc1cc(OCCCn2ccnc2)ccc1C(C)C | 4.44 µg/mL (≈ 17.2 µM)
CN(c1ccccc1)c1ccc([N+](=O)[O-])c2nonc12 | < 0.1 µg/mL
COc1ccc(OCc2nn3c(-c4ccc(C(C)(C)C)cc4)nnc3s2)cc1 | > 50 µg/mL (inactive)
COc1ccc(N2CCN(c3ncnc4sc5c(c34)CCCC5)CC2)cc1 | > 50 µg/mL (inactive)
CCc1cc2c(=O)oc(-c3ccc(F)cc3)nc2s1 | > 50 µg/mL (inactive)
CC12CC3CC(C)(C1)CC(C(=O)NC1=NCCS1)(C3)C2 | 13 µg/mL (≈ 44.3 µM)
C1=C(c2ccc(Oc3ccccc3)cc2)N2CCN=C2S1 | 5.23 µg/mL (≈ 17.8 µM)
N#Cc1ccccc1NC(=O)CSc1nc2cc3ccccc3cc2[nH]1 | 2.68 µg/mL (≈ 7.48 µM)
O=c1oc(-c2ccccc2Br)nc2sc3c(c12)CCCC3 | 0.98 µg/mL (≈ 2.71 µM)
CCN(CC)c1ccc(NC(=S)NCC(C)C)cc1 | 5.43 µg/mL (≈ 19.4 µM)
CC(C)OC(=O)C(C)Oc1ccc(C(=O)NCCc2ccccc2)cc1 (stereo not given) | 48.3 µg/mL (≈ 136 µM)
COC(=O)COc1ccc(-c2ccc(C)cc2)cc1 | 0.22 µg/mL (≈ 0.858 µM)
CCNS(=O)(=O)c1ccc(NC(=O)Nc2cccc(C(F)(F)F)c2)cc1 | 7.85 µg/mL (≈ 20.3 µM)
CCCc1ccc(OC(=O)c2ccc(OC)c(OC)c2)cc1 | 2.37 µg/mL (≈ 7.89 µM)
Cc1cccc(C(=O)NC(=S)N2CCC(C)CC2)c1 | 2.97 µg/mL (≈ 10.7 µM)

SMILES | IC50
COC(=O)COc1ccc(C2CCCCC2)cc1 | 1.46 µg/mL (≈ 5.88 µM)
CN(C)c1ccc(C(O)(c2ccc(N(C)C)cc2)c2ccc(N(C)C)cc2)cc1 | 0.6 µg/mL (≈ 1.54 µM)
Brc1ccc(-c2nn(-c3ccccc3)cc2CNCc2ccccc2)cc1 | 1.24 µg/mL (≈ 2.96 µM)
Cc1cc(C)cc(COc2ccc3c(C)c(CCC(=O)O)c(=O)oc3c2C)c1 | 0.32 µg/mL (≈ 0.841 µM)
CC1=CC(C)(C)N2C(=O)C3(Nc4ccccc4S3)c3cc(C)cc1c32 (stereo not given) | 16.9 µg/mL (≈ 48.6 µM)
C1=CC2CC1CC2CN1CCC(N(CCc2ccccc2)Cc2ccccc2)CC1 (stereo not given) | 1.4 µg/mL (≈ 3.49 µM)
CC(C)(C)c1cc(Cl)c(O)c(NC(=S)NC(=O)c2ccc(Cl)cc2)c1 | < 0.1 µg/mL
CC1CCc2nc3sc4c(c3c(N)c2C1)CCCC4 (stereo not given) | 1.06 µg/mL (≈ 3.89 µM)
CCc1ccc(O)c(NC(=S)NC(=O)c2cccc3ccccc23)c1 | 0.16 µg/mL (≈ 0.457 µM)
CCN(CC)c1ccc(NC(=S)Nc2ccc(F)c(Cl)c2)cc1 | 7.64 µg/mL (≈ 21.7 µM)
O=C(Nc1ccc(N2CCN(Cc3ccccc3)CC2)cc1)c1cccc(Cl)c1Cl | 4.51 µg/mL (≈ 10.2 µM)
CCOC(=O)COc1ccc(S(=O)(=O)Nc2cccc(Cl)c2C)cc1 | 3.03 µg/mL (≈ 7.89 µM)
COC(=O)c1ccc(CSc2nnc(-c3ccccc3)o2)o1 | > 50 µg/mL (inactive)
CCC(C)c1ccc(O)c(NC(=S)NC(=O)c2ccc(-c3ccc(Cl)cc3)o2)c1 (stereo not given) | < 0.1 µg/mL
COC(=O)Cc1c(C)c2ccc(OCC(=O)OCc3ccccc3)c(C)c2oc1=O | 0.11 µg/mL (≈ 0.268 µM)
CC1(C)CC(=O)C2=C(C1)NC(Nc1nc3ccccc3o1)=NC2c1cccc(Br)c1 (stereo not given) | 3.24 µg/mL (≈ 6.96 µM)
COc1cccc(NC(=S)NC(=O)CC(C)(C)C)c1 | 13.4 µg/mL (≈ 47.9 µM)
CCc1ccc(OCC(=O)NNC(=O)c2cnccn2)c(Br)c1 | 1.12 µg/mL (≈ 2.95 µM)
CCCC(=O)N1CCN(c2ccc(NC(=O)c3cc4ccccc4o3)cc2Cl)CC1 | 33.7 µg/mL (≈ 79.1 µM)
COc1cccc(C(=O)NC(=S)Nc2ccc(N3CCN(C(=O)c4cccs4)CC3)c(Cl)c2)c1 | 0.76 µg/mL (≈ 1.48 µM)
CC(=O)N1CCN(c2ccc(NC(=S)NC(=O)c3cc4ccccc4o3)cc2)CC1 | 2.74 µg/mL (≈ 6.49 µM)
CC1CCCN(Cc2c(O)ccc3c(=O)c(-c4nc5ccccc5s4)c(N)oc23)C1 (stereo not given) | 23.6 µg/mL (≈ 55.9 µM)
Cc1ccc2nc(-c3cccc(NC(=O)c4cccs4)c3)[nH]c2c1 | 7.08 µg/mL (≈ 21.2 µM)

SMILES | IC50
CC1CCc2c(sc3ncnc(Nc4ccc(OCc5ccccc5)cc4)c23)C1 (stereo not given) | > 50 µg/mL (inactive)
CC(C)CCNC(=O)C(=O)Nc1ccccc1Cl | 0.84 µg/mL (≈ 3.13 µM)
Cc1ccc(C(C)C)c(OCCCCn2ccnc2)c1 | 2.22 µg/mL (≈ 8.15 µM)
O=C(Nc1ccc(Cl)c(C(F)(F)F)c1)c1ccc2c(c1)OCO2 | > 50 µg/mL (inactive)
CCOc1ccc(S(=O)(=O)Nc2ccc(C(F)(F)F)cc2)cc1 | 6.25 µg/mL (≈ 18.1 µM)
CCc1cc2c(=O)c(-c3ccc4c(c3)OCCO4)coc2cc1OCC(=O)OC(C)C | 5.83 µg/mL (≈ 13.7 µM)
O=c1oc(-c2ccccc2F)nc2sc3c(c12)CCCC3 | > 50 µg/mL (inactive)
CCOC(=O)c1cnc2c(C)c(C)ccc2c1NCc1ccco1 | 3.91 µg/mL (≈ 12.1 µM)
CCCCC(=O)Nc1ccc(C(=O)N2CCN(c3cccc(C(F)(F)F)c3)CC2)cc1 | 9.86 µg/mL (≈ 22.7 µM)
COc1ccc(-c2cc(=O)oc3cc(OCC(=O)OCc4ccccc4)ccc23)cc1 | 16.4 µg/mL (≈ 39.3 µM)
O=C(CSc1ccc(F)cc1)Nc1ccc2c(c1)OCCO2 | 7.01 µg/mL (≈ 22 µM)
CC(C)(C)c1ccc(-c2nn3c(Cc4ccccc4)nnc3s2)cc1 | > 50 µg/mL (inactive)
Cc1ccc2nc(SCc3ccc4ccccc4c3)[nH]c2c1 | 11 µg/mL (≈ 36 µM)
CCCOc1ccccc1-c1nc(SCC(=O)OCC)n[nH]1 | 1.86 µg/mL (≈ 5.79 µM)
Cc1cccc(NC(=O)c2cc3cc([N+](=O)[O-])ccc3oc2=O)c1 | > 50 µg/mL (inactive)
O=C(/C=C/c1cccc(C(F)(F)F)c1)Nc1cccc(Br)c1 | 1.39 µg/mL (≈ 3.76 µM)
CCc1cc2c(=O)c(Oc3ccc(-c4ccccc4)cc3)coc2cc1OC(C)=O | 5.89 µg/mL (≈ 14.7 µM)
O=C(NNC(=S)NCc1ccc(F)cc1)c1ccncc1 | 5.78 µg/mL (≈ 19 µM)
CN1CCN(c2ccc(NC(=O)c3sc4ccccc4c3Cl)cc2)CC1 | > 50 µg/mL (inactive)
Cc1ccc(SCCNC(=S)Nc2ccc(Nc3ccccc3)cc2)cc1 | 4.03 µg/mL (≈ 10.2 µM)
CC(C)(C)c1ccc(C(=O)NC(=S)Nc2cccc(C#N)c2)cc1 | > 50 µg/mL (inactive)
Cc1ccc(-n2c(=O)oc3ccc(Cl)cc3c2=O)cc1Cl | 1.08 µg/mL (≈ 3.35 µM)
Cc1ccc(S(=O)(=O)Nc2ccc(NC(=O)Nc3cccc(C(F)(F)F)c3)cc2)cc1 | 1.13 µg/mL (≈ 2.51 µM)

SMILES | IC50
CC1(C)Cc2c(sc3nc(SCC(=O)Nc4ccc(Br)cc4)nc(N)c23)CS1 | 6.22 µg/mL (≈ 12.6 µM)
Cc1cc(Cl)ccc1NC(=O)CCc1ccc(S(=O)(=O)NCC(C)C)cc1 | 0.53 µg/mL (≈ 1.3 µM)
O=C(Nc1nnc(-c2ccccc2Cl)o1)c1ccco1 | 1.83 µg/mL (≈ 6.32 µM)
Cc1nc2ccccc2n1CC(O)COc1ccc(C2C=CCC2)cc1 (stereo not given) | 1.22 µg/mL (≈ 3.5 µM)
CCc1ccc(OCC(=O)NC2CCCCC2)c(Br)c1 | > 50 µg/mL (inactive)
Cc1cccc(N2CCN(C(=O)c3ccc(-c4ccccc4)cc3)CC2)c1C | 2.34 µg/mL (≈ 6.32 µM)
Cc1cc(OCCCCn2ccnc2)ccc1C(C)C | 2.57 µg/mL (≈ 9.43 µM)
CCCC(=O)N1CCN(c2ccc(NC(=O)COc3ccc(C(C)CC)cc3)cc2Cl)CC1 (stereo not given) | 11.3 µg/mL (≈ 24 µM)
COc1cccc(CN2CCN(C(=O)Nc3ccc(Cl)c(Cl)c3)CC2)c1 | 5.13 µg/mL (≈ 13 µM)
CC(=O)Oc1ccccc1C(=O)Nc1ccc(Br)cc1Cl | 4.23 µg/mL (≈ 11.5 µM)
c1ccc2c(NCCc3c[nH]c4ccccc34)c3ccccc3nc2c1 | 1.51 µg/mL (≈ 4.48 µM)
O=C(CCNc1cccc(F)c1)c1ccccc1 | 8.2 µg/mL (≈ 33.7 µM)
Cc1cc(OCC(O)CN2CCN(c3ccc(F)cc3)CC2)ccc1C(C)C (stereo not given) | 11.7 µg/mL (≈ 30.2 µM)
CC(C(=O)OCc1ccccc1Cl)n1cnc2scc(-c3ccc(Cl)cc3)c2c1=O (stereo not given) | > 50 µg/mL (inactive)
O=C(NC(=S)Nc1ccc(F)cc1)c1ccc(Br)cc1 | 0.95 µg/mL (≈ 2.69 µM)
CCCCNCCOc1ccc(Cl)cc1C(C)(C)C | 12.8 µg/mL (≈ 45 µM)
COc1ccc(OCC(=O)Nc2cccc(-c3nc4ccccc4c(=O)o3)c2)cc1 | 37.1 µg/mL (≈ 92.2 µM)
CCOC(=O)COc1ccc2ccccc2c1/C=C(\C)[N+](=O)[O-] | 0.5 µg/mL (≈ 1.59 µM)
COc1ccc(Br)cc1C(=O)Nc1ccc(N2CCN(C(=O)C(C)C)CC2)c(Cl)c1 | 5.08 µg/mL (≈ 10.3 µM)
O=Cc1cccc(OCC(=O)Nc2cccc(Cl)c2)c1 | 45 µg/mL (≈ 155 µM)
Clc1ccc(OCCCCn2ccnc2)c(Br)c1 | 1.51 µg/mL (≈ 4.58 µM)
O=C(NC1CCCCC1)c1cccc(N2C(=O)c3cccc4c([N+](=O)[O-])ccc(c34)C2=O)c1 | 0.39 µg/mL (≈ 0.879 µM)
COC(=O)COc1ccc2c(=O)c(-c3ccccc3Cl)c(C)oc2c1 | 0.42 µg/mL (≈ 1.17 µM)
